Measurements reported in patent US20240254135A1, “POLYPHENOL COMPOUNDS” (Epirium Bio Inc., priority 2022, published 2024).

Tested on: PGC-1α
Assay: In vivo PGC-1α expression in liver of LPS-treated mice (ELISA)
Set-up: species or system C57BL/6 mice
Details: for PGC-1α levels / PGC-1α level: liver, male C57BL/6 mice, LPS 3 mg/Kg IP + compound 10 mg/kg PO BID, 24 h post LPS; for PGC-1α levels: third set: Control 38327, LPS alone 16860
Method: C57BL/6 mice were procured from Vivo Bio Tech Ltd. Male mice were used for the study within an age range of 7 to 8 weeks. Body weight for these mice ranged from 20 g to 25 g. Animals were housed in a group of 6 in individually ventilated cages with temperature of 22±3° C., a relative humidity of 50 to 60%. The bottom of the cages was layered with sterilized corn cob. Animals were provided with gamma irradiated feed and autoclaved drinking water ad-libitum. The IVCs were maintained at an environment controlled (Centrally Air-Conditioned) room at a temperature of 22±3° C., a relative humidity of 50 to 60%, light intensity of 250-300 lux and a 12 hour light-dark cycle and noise intensity of <85 db.
Method of Preparation: LPS was dosed at 3 mg/kg in a dose volume of 10 ml/kg. For this, 0.3 mg/ml of LPS solution (Micronized suspension) was prepared. Butter paper was placed on analytical balance, tarred and LPS was placed on butter paper and its weight was noted down. LPS was transferred to 15 ml falcon tube. Then required amount of normal saline was added to it to make it 0.3 mg/ml. The solution was vortexed properly for 5 minutes and placed on ice. LPS solution was vortexed every time before aspiration and injection.
LPS was dosed at 3 mg/kg. Each test compound was dosed at 10 mg/kg, 2 hour and 15 min post LPS administration.
0.5% CMC was used as a vehicle with a dose volume of 10 ml/kg. An IP route was used for LPS, and a PO route was used for each test compound. Animals were sacrificed 24 hours post LPS dosing, and plasma were collected. PGC-1α level was measured in liver samples, and other tissues were stored for future analysis. PGC-1α level was checked using ELISA kit—CUSABIO Mouse PPARGCIA ELISA kit.
Protocol: One day before start of the experiment C57BL/6 Mice (Male, 6-7-week-old) were randomized on the basis of their body weight and were divided into groups. All the cages were assigned the respective group name. Animals inside each cage were marked on the base of the tails with permanent marker to distinguish each animal. Mice were fasted overnight. Next day morning animals were dosed with test item. Group 1 (Control) and Group 2 (LPS) Animals were dosed with vehicle (0.5% CMC). Test items were prepared in 0.5% CMC by trituration in mortar and pestle and addition of CMC drop by drop. 2 hour post test item/vehicle dosing animals were administered with LPS through IP route at 3 mg/kg of body weight. Group 1 (Control) animals were administered with saline. 0.25 hour post LPS administration, animals were again dosed with test item/vehicle. Post dosing, animals were returned to their respective cages and kept until termination of the study. No feed was offered to any group. Animals were provided with water. 24 hour post LPS administration, blood was collected from each animal under influence of mild isoflurane anesthesia through retro-orbital technique. Animals were sacrificed by CO2 asphyxiation technique. Post-termination, animals were dissected and vital organs, liver, brain, skeleton muscle were collected in Eppendorf tubes and flash frozen in liquid nitrogen. Serum was collected from whole blood by centrifuging it at 4° C. at 10,000 RPM and for 10 minutes. (Blood was left for 2 hour for coagulation before centrifugation) After completion of the experiment, all collected samples were stored at −80° C. until analysis.
Assay Methods/Protocol: The mortar was chilled with liquid nitrogen and then the small tissue pieces were grinded in the presence of liquid nitrogen to a fine powder. Immediately after grinding, transferred small amount of tissue powder to a 1.5 ml micro centrifuge tube containing 1.0 ml lysis buffer (RIPA buffer+Protease inhibitor). The samples were then incubated on ice for 2 hours. The samples were vortexed every 15 minutes. The samples were then centrifuged at 13000×g for 15 minutes at 2-8° C. After centrifugation the supernatant was removed carefully and pellet was discarded. […]

[1] = as E25, relative to Control = 100, LPS alone 44
[2] = as E23, relative to Control = 100, LPS alone 66
[3] = second set: Control 25677, LPS alone 16956
[4] = as E21, relative to Control = 100, LPS alone 51
[5] = first set: Control 35303, LPS alone 18139

SMILES | PGC-1α level (%) [1] [%] | PGC-1α levels [pg/mL] | PGC-1α level (%) [2] [%] | PGC-1α level [3] [pg/mL] | PGC-1α level (%) [4] [%] | PGC-1α level [5] [pg/mL]
Oc1cc(O)c2c(c1)OC(c1ccccc1)C(O)C2 (single isomer, unassigned) [Compound 78a, 2-phenylchromane-3,5,7-triol] | 96 | 36967 |  |  |  | 
Oc1ccc2c(c1)OC(c1ccc(O)c(C(F)(F)F)c1)C(O)C2 (single isomer, unassigned) [Compound 77b, 2-(4-hydroxy-3-(trifluoromethyl)phenyl)chromane-3,7-diol] |  |  | 148 | 37954 |  | 
Oc1cc(O)c2c(c1)OC(c1ccc(O)c(F)c1)C(O)C2 (single isomer, unassigned) [Compound 76b, 2-(3-fluoro-4-hydroxyphenyl)chromane-3,5,7-triol] |  |  | 81 | 20790 |  | 
COc1cc(C2Oc3ccccc3CC2O)ccc1F (single isomer, unassigned) [Compound 75b, 2-(4-fluoro-3-methoxyphenyl)chroman-3-ol] |  |  |  |  | 92 | 32354
Oc1cc(O)c2c(c1)O[C@H](c1ccc(O)c(O)c1)[C@H](O)C2 [Epicatechin, (+)Epicatechin, reference compound] | 71 | 27272 | 122 | 31225 | 90 | 31729
